According to patent US6818396B1, “Process for determination of the activity of a substance using an in vitro functional test” (priority 2000, dated 2004):

Tests used:
native TEM-1 enzyme = target: T1, native TEM-1 enzyme (Escherichia coli, UniProt P62593); assay: Characterization of inhibitor on native TEM-1 enzyme expressed in vitro, nitrocephine test; format: biochemical; conditions: read-out: inhibition of native TEM-1 enzyme
T1 construct: made in house
Experimental: For this 5 μl of a translation mixture expressing either the native enzyme or one of the two mutants were separately incubated at 25° C. for 3 minutes in a final volume of 500 μl of buffer I (final concentration: NaP 50 mM pH 7.0, 1.5 μM potential inhibitor #1). Then 100 μg/ml of nitrocephine and 0.25 mM final of DMSO were added, and the reaction was followed by spectrophotometry at 486 nm. The obtained results were expressed in maximum activity percentage measured on the enzyme in the absence of inhibitor.

TEM-1 beta-lactamase = target: T2, TEM-1 beta-lactamase (Escherichia coli, UniProt P62593); format: biochemical; conditions: for reduction of the TEM-1 activity: inhibitor 21.5 μM final
T2 construct: made in house
Experimental: A screening of new TEM-1 ? -lactamase inhibitors was carried out by the process of the invention. This enzyme was expressed in vitro as described by Zubay by using 300 μg of mRNA in a final translation volume of 5 ml. […] Then 3 μl of the translation mixture were added in each microtitration plaque well and the mixture was incubated 3 minutes at 25° C. The volume was then completed to 58 μl with a revelation solution (final concentration: NaP 40 mM pH 7.0, 100 μg/ml of nitrocephine and 0.25 mM DNSO). The reaction was followed by spectrophotometry at 486 nm. Three controls were carried out: one without translation extract (therefore without enzyme), one with the substrate alone, and one without any potential inhibitor.

T2 sequence (P62593 24-286 limits assumed): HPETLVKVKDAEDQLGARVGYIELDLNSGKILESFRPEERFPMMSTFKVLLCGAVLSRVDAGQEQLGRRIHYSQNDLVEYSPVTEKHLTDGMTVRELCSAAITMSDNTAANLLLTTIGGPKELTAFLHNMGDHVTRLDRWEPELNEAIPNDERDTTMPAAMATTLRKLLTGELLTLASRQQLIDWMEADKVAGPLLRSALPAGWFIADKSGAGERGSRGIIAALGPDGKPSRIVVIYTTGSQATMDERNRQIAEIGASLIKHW
T1 sequence (P62593 24-286 limits assumed): as above

Compound | inhibition at 1.5 µM (native TEM-1 enzyme) [%] | reduction of the TEM-1 activity versus control without inhibitor (TEM-1 beta-lactamase; inhibitor 0.4 μM final, 3 minutes at 25° C. preincubation) [%] | reduction of the TEM-1 activity (TEM-1 beta-lactamase) [%]
O=C(O)[C@H]1/C(=C/CO)O[C@@H]2CC(=O)N21 [inhibitor #1, clavulanic acid] | 87 | 52 | 80
CC1(C)[C@H](C(=O)O)N2C(=O)C[C@H]2S1(=O)=O [inhibitor #2, sulbactam] |  |  | 73
